Common to all, as to assay type: cell-based, human
Experiment [1] concerns peripheral blood lymphocytes (PBL). In words: Proliferation assay of peripheral blood lymphocytes (3H-thymidine incorporation). The conditions noted are these: for 3H-thymidine Incorporation (cpm + S.D.) / S.I. (stimulation index): PBL from anti-VCA-positive, anti-EA-positive donor, 5 days. As to the method: Proliferation assays. T-cell proliferation assays using the native p17 or p50 polypeptide or the synthetic peptides were performed as previously described in detail (Pothen et al., Int. J. Cancer, 49:656-660, 1991). Briefly, peripheral blood lymphocytes (PBLO from sero-positive donors were isolated on FICOLL-HYPAQUE gradients, washed and resuspended in RPMI 1640 media containing 10% heat-inactivated human A^+ serum from a sero-negative donor. Cells (1×10^5 per 0.1 ml) were then added to each well in 96-well, round-bottomed tissue culture plates (Costar, Cambridge, Mass.). The different antigen preparations were added to triplicate wells in 0.1 ml volumes and the plates were incubated at 37° C. for 5 days. ^3H-thymidine (5 Ci per mM) was added at a concentration of 1 μCi per well over the last 4 hours of culture. The cells were then harvested with a multichannel sample harvester and ^3H-thymidine incorporation was determined using a Beckman Model LS 3801 liquid scintillation counter. Stimulation indices for the test antigens were calculated by dividing the average counts per minute (CPMO for the test antigens by the average CPM of the medium control wells.
PBL from asymptomatic EBV-infected individuals were tested for response to any of the three p17 synthetic peptides (Table 1) by a proliferation assay using lymphocytes previously shown to proliferate in the presence of native p17 (Pothen et al., Int. J. Cancer, 49:656-660, 1991). Different concentrations of the synthetic peptides were incubated with the PBL for 5 days and then proliferation was assayed by the incorporation of ^3H-thymidine. The native p17 purified from activated P3HR-1 cells gave a S.I. of 15.8 in this experiment. […] Neither of the other synthetic peptides induced a proliferation response at the concentrations tested.
PBL from 3 anti-VCA-positive anti-EA-antibody-negative individuals were also examined in the proliferation assay with the three synthetic peptides. Again, all 3 PBL preparations responded to the highest concentrations of p17.1 with S.I.'s ranging from 3.5-11. Two of the preparations (FIG. 2A,C) also proliferated in the presence of lower concentrations of antigen with S.I.'s of 3 and 5 respectively. […] These experiments established that T-lymphocytes from EBV-infected individuals, irrespective of the presence of antibody to EA, recognized a dominant epitope on p17.
Background: Uptake of a labelled nucleoside into DNA is a usual measure of proliferation.

In experiment [2] the test system is CD4+ T-cell subpopulation. Kind of experiment: Proliferation assay with CD4+-enriched T-cell subpopulation. As for the experimental part: (§1) PBL enriched for T-cell subpopulations were isolated by depleting a particular population by antibody/complement-mediated cytotoxicity. CD4^+ cells were prepared by lysing CD8^+ cells with anti-CD8 antibody and rabbit complement whereas the CD8^+ T cell subpopulation was enriched by lysing CD4^+ cells with an anti-CD4 antibody and rabbit complement.
(§2) PBL were resuspended in RPMI-1640 medium containing 2 mM L-glutamine, 25 mM HEPES, and 10 μg per ml gentamicin (HEPES media) at a concentration of 20×10^6 cells per ml. T cell specific MAb, OKT4 or OKT8 (Ortho Diagnostics Inc.), was added to the cells at the optimal concentration (previously determined by titration to give maximal lysis) and incubated on ice for 30 minutes. The cells were then washed with fresh HEPES media and resuspended at 10×10^6 cells per ml in baby rabbit complement (Pel-Freez Clinical Systems) diluted with the HEPES media to the appropriate concentration (previously assayed to give maximal antibody-specific cytotoxicity). The cells were incubated for 45 minutes in a 37° C. water bath with gentle mixing every 15 minutes. After incubation, the cells were washed thoroughly with the HEPES media and an aliquot (1-2×10^6) of cells was removed and stained for flow cytometric analysis which was performed as described below. […]

For experiment [3], the system named is CD8+ T-cell subpopulation. Kind of experiment: Proliferation assay with CD8+-enriched T-cell subpopulation. As to the method:
as §1, §2

Here are results for 1 sequence from patent publication US7988972B2, “Immunoreactive peptides from Epstein-Barr virus” (Ortho-Clinical Diagnostics, Inc., priority 1993, dated 2011).

As for “ETFTETWNRFITHTE [p17.1, synthetic peptide from 17 Kd early antigen (EA-R) region of EBV]”, the S.I. in experiment [1] (PBL from 3 anti-VCA-positive anti-EA-antibody-negative individuals, highest concentrations) is recorded as 3.5-11; in experiment [1] (PBL preparation of FIG. 2A (anti-VCA-positive, anti-EA-negative), lower concentrations of antigen), 3; in experiment [1] (PBL preparation of FIG. 2C (anti-VCA-positive, anti-EA-negative), lower concentrations of antigen), 5; in experiment [2] (CD4+ subpopulation from donor A, different concentrations), not above 5.3; in experiment [3] (CD8+ subpopulation from donor B, 50 μg per ml) it was “greater than 3”. The “3H-thymidine Incorporation (cpm + S.D.)” value worked out at 263 ± 57 cpm in experiment [1] (3.12 μg/ml), 689 ± 88 cpm in experiment [1] (12.5 μg/ml) and 1584 ± 37 cpm in experiment [1] (50 μg/ml). Also, the “S.I. (stimulation index)” value in experiment [1] (3.12 μg/ml) came out at 1.8; in experiment [1] (12.5 μg/ml), 4.7; in experiment [1] (50 μg/ml), 10.8. Further, the proliferation response entry in experiment [1] (unfractionated PBL of donors A and B, highest concentrations tested (100 μg per ml donor A, 50 μg per ml donor B)) is “proliferated”; in experiment [2] (CD4+ subpopulation from donor B), “responded”; in experiment [3] (CD8+ subpopulation from donor A) it was “unresponsive”.
